Experimental data from patent US20260250325A1, “Antiviral Polypeptide Membrane Fusion Inhibitor, and Preparation Method and Application Thereof” (priority 2025, published 2026).
Read-outs that look alike come from different tables or passages of the source. Where a SMILES comes first, the peptide text is derived from it. [ ]: non-standard residue; d: D form. The star is where a group is joined. ξ: configuration not given here. Succinyl(4-O-cholesteryl) = CC(C)CCC[C@@H](C)[C@H]1CC[C@H]2[C@@H]3CC=C4C[C@@H](OC(=O)CCC(=O)*)CC[C@]4(C)[C@H]3CC[C@]12C; ξD = NC(CC(=O)O)C(=O)O

Assays:
[1] = Cytotoxicity test in HEp-2 cells (CCK8 cell viability); assay type: cell-based; conditions: human
Procedure: (§1) Human Epithelial Pharyngeal Carcinoma Cells (HEp-2) were from the American Type Culture Collection (ATCC), with a catalog number CCL-23. The cells were cultured in a DMEM culture solution in which 10% fetal bovine serum, 1% sodium pyruvate, 1% nonessential amino acids, 2 mM glutamine, 100 U/mL penicillin, and 100 μg/mL streptomycin were added. The RSV A long virus strain was from the ATCC, with a catalog number VR-26.
A cytotoxicity test and an antiviral test were performed in parallel. The HEp-2 cells were inoculated in the microplate at a density of 30,000 cells per well, and cultured overnight in the 37° C. incubator with 5% CO2. On the next day, the diluted test sample was added. The cell control (cells, without compound treatment) and a culture solution control (culture solution only, without cell or compound treatment) were set. A final concentration of DMSO in the culture solution was 0.5%. The cells were cultured for 1 day in the 37° C. incubator with 5% CO2. Cell viability was detected by using a cell viability detection kit CCK8.
(§2) The raw data for plaque counts and cell viability tests were used for analyzing the antiviral activity and cytotoxicity of the test samples, respectively. A calculation formula was shown as follows.
cell survival rate=(sample value-culture medium control average value)/(cell control average value-culture medium control average value)×100
(§3) Non-linear fitting analysis was performed on the inhibition rate of the sample by using GraphPad Prism (version 10), so as to calculate the IC50 and CC50 values for the sample.
CC50: in the in-vitro antiviral activity experiment, CC50 was used to measure the toxicity of the compound to be tested to the Hep-2 cells. To be precise, when the compound to be tested was at a specific concentration, 50% of the Hep-2 cells was caused to die, and this concentration was defined as the CC50. A fitting formula was log (inhibitor) vs. response-Variable slope (four parameters).

RSV A long virus strain = assay type: cell-based
Procedure: In this embodiment, an RSV-A long virus strain was used as an infection virus in the present disclosure. The anti-RSV activity of the synthesized polypeptide was determined through CPE detection.
The inhibitory activity of the compounds of Table 1-1-Table 1-5, positive polypeptide in Table 1-11, and positive control T-118 against the RSV-A long virus strain was detected.
as §1
This study used a plaque reduction experiment to detect the in-vitro activity of a test sample against the RSV A long virus strain. The test sample and a control compound were tested at 8 concentrations in duplicated wells. The HEp-2 cells were digested with trypsin and then diluted to a concentration of 300,000 cells per milliliter by using an experimental culture solution. The diluted cells were added to a 96-well cell test board, with 100 μL per well, corresponding to 30000 cells per well. The cells were cultured overnight in a 37° C. incubator with 5% CO2. On the second day, the test sample was diluted in an experimental culture medium at a fold ratio. The sample diluted at a fold ratio and an equal volume of virus (100 PFU per well) were well mixed and incubated at 37° C. in 5% CO2 for 1 h. Then, the culture solution in the 96-well cell test board was discarded, the sample virus mixed solution (200 μL) was added to the 96-well cell culture plate, and incubated at 37° C. in 5% CO2 for 2 hours. After 2 h, the sample virus mixed solution was discarded, and 200 μL of maintenance culture medium containing 0.8% CMC and the corresponding concentration of the test sample was added. A cell control (cells, without compound treatment or viral infection) and a viral control (cell infection virus, without compound treatment) were set. The cells were cultured for 1 day in the 37° C. incubator with 5% CO2. One day after viral infection, the culture medium was discarded, the cells were fixed with 4% paraformaldehyde, and then permeabilization was performed with 0.5% Triton X-100. After the plate was washed with DPBS, an RSV-specific antibody (RSV antibody, diluted 1:3000) was added and incubated at 37° C. for 1 h. Then, a secondary antibody (donkey anti-goat IgG, diluted 1:500) and incubated at 37° C. for 1 h. The secondary antibody was discarded, a TrueBlue solution was added, dyeing was performed for 10 min; and the plate was washed with running water and then air-dried, and the number of spots in each well was counted by using a microplate imaging counter. Raw data was used for calculating the antiviral activity of the samples.
as §2
% inhibition rate=100−(sample value-cell control average value)/(virus control average value-cell control average value)×100%
as §3
IC50: in an in-vitro antiviral activity experiment, IC50 represented an inhibition ability indicator of a compound to be tested against the Hep-2 cells infected by the RSV A long virus strain.

[2] = HEp-2 cells, CCK8, 1 day, read-out: CC50

| SMILES | CC50 at 1 day [1] [µM] | IC50 (RSV A long virus strain) [µM] | CC50 at 1 day [1, 2] [µM] | IC50 (RSV A long virus strain; RSV A long virus strain, HEp-2 cells, plaque reduction, 1 day, read-out: IC50) [µM] |
| --- | --- | --- | --- | --- |
| CC[C@H](C)[C@H](NC(=O)[C@H](CO)NC(=O)[C@H](C)NC(=O)[C@H](CC(=O)O)NC(=O)[C@H](Cc1ccccc1)NC(C)=O)C(=O)N[C@@H](CCC(=O)O)C(=O)N[C@@H](CCC(=O)O)C(=O)N[C@H](C(=O)N[C@@H](CC(N)=O)C(=O)N[C@@H](CCCNC(=N)N)C(=O)N[C@@H](CCCNC(=N)N)C(=O)N[C@H](C(=O)N[C@@H](CCC(=O)O)C(=O)N[C@@H](CCC(=O)O)C(=O)N[C@@H](CO)C(=O)N[C@@H](CC(C)C)C(=O)N[C@@H](CCCNC(=N)N)C(=O)N[C@@H](CCCNC(=N)N)C(=O)N[C@H](C(=O)N[C@@H](CCC(=O)O)C(=O)N[C@@H](CCC(=O)O)C(=O)N[C@@H](CO)C(=O)N[C@@H](CC(=O)O)C(=O)N[C@@H](CCCNC(=N)N)C(=O)N[C@@H](CCCNC(=N)N)C(=O)N[C@@H](CC(C)C)C(=O)N[C@@H](CCC(=O)O)C(=O)N[C@H](C(=O)N[C@@H](CC(N)=O)C(=O)N[C@@H](CCCCN)C(=O)N[C@@H](CCCCN)C(=O)N[C@@H](C)C(N)=O)C(C)C)[C@@H](C)CC)[C@@H](C)CC)C(C)C [Compound 1] (Ac-FDASIEEVNRRIEESLRRIEESDRRLEVNKKA-NH2) | > 8 | 1.36 |  |  |
| CC[C@H](C)[C@H](NC(=O)[C@H](CCCCN)NC(=O)[C@H](CCCCN)NC(=O)[C@H](CC(C)C)NC(=O)[C@@H](NC(=O)[C@H](CCC(=O)O)NC(=O)[C@H](CCC(=O)O)NC(=O)[C@@H](NC(=O)[C@H](CCCCN)NC(=O)[C@H](CCC(=O)O)NC(=O)[C@H](CC(N)=O)NC(=O)[C@@H](NC(=O)[C@H](CCC(=O)O)NC(=O)[C@H](CC(N)=O)NC(=O)[C@@H](NC(=O)[C@H](CCCCN)NC(=O)[C@H](CCC(N)=O)NC(=O)[C@H](CC(N)=O)NC(=O)[C@H](Cc1ccccc1)NC(=O)[C@H](CCC(=O)O)NC(=O)[C@H](CC(=O)O)NC(=O)[C@H](CC(=O)O)NC(C)=O)[C@@H](C)CC)C(C)C)[C@@H](C)CC)[C@@H](C)CC)C(=O)N[C@@H](CCC(=O)O)C(=O)N[C@@H](CCC(=O)O)C(=O)N[C@@H](CO)C(=O)N[C@@H](CC(=O)O)C(=O)N[C@@H](CCCNC(=N)N)C(=O)N[C@@H](CCCCN)C(=O)N[C@@H](CC(C)C)C(=O)N[C@@H](CCC(=O)O)C(=O)N[C@@H](CCC(=O)O)C(=O)N[C@@H](CO)C(=O)N[C@@H](CC(=O)O)C(=O)N[C@@H](CCCCN)C(=O)N[C@@H](CCCCN)C(=O)N[C@@H](C)C(N)=O [Compound 2] (Ac-DDEFNQKINEVNEKIEEILKKIEESDRKLEESDKKA-NH2) | > 8 | > 8 |  |  |
| CC[C@H](C)[C@H](NC(=O)[C@H](CCCCN)NC(=O)[C@H](CCCCN)NC(=O)[C@H](CC(C)C)NC(=O)[C@H](CO)NC(=O)[C@H](CCC(=O)O)NC(=O)[C@H](CCC(=O)O)NC(=O)[C@@H](NC(=O)[C@H](CCCCN)NC(=O)[C@H](CCCCN)NC(=O)[C@H](CC(N)=O)NC(=O)[C@@H](NC(=O)[C@H](CCC(=O)O)NC(=O)[C@H](CCC(=O)O)NC(=O)[C@@H](NC(=O)[C@H](CCCCN)NC(=O)[C@H](CCCCN)NC(=O)[C@H](CCCCN)NC(=O)[C@H](CC(=O)O)NC(=O)[C@H](Cc1ccccc1)NC(=O)[C@H](CCC(=O)O)NC(=O)[C@H](CC(=O)O)NC(C)=O)[C@@H](C)CC)C(C)C)[C@@H](C)CC)C(=O)N[C@@H](CCC(=O)O)C(=O)N[C@@H](CCC(=O)O)C(=O)N[C@@H](CO)C(=O)N[C@@H](CC(=O)O)C(=O)N[C@@H](CCCCN)C(=O)N[C@@H](CCCCN)C(=O)N[C@@H](CC(C)C)C(=O)N[C@@H](CCC(=O)O)C(=O)N[C@@H](CCC(=O)O)C(=O)N[C@H](C(N)=O)C(C)C [Compound 3] (Ac-DEFDKKKIEEVNKKIEESLKKIEESDKKLEEV-NH2) |  |  | > 8 | 4.43 |
| CC[C@H](C)[C@H](NC(=O)[C@H](CCCCN)NC(=O)[C@H](CCCCN)NC(=O)[C@H](CC(C)C)NC(=O)[C@H](CO)NC(=O)[C@H](CCC(=O)O)NC(=O)[C@H](CCC(=O)O)NC(=O)[C@@H](NC(=O)[C@H](CCCCN)NC(=O)[C@H](CCCCN)NC(=O)[C@H](CC(N)=O)NC(=O)[C@@H](NC(=O)[C@H](CCC(=O)O)NC(=O)[C@H](CCC(=O)O)NC(=O)[C@@H](NC(=O)[C@H](CCCCN)NC(=O)[C@H](CCCCN)NC(=O)[C@H](CCCCN)NC(=O)[C@H](CC(=O)O)NC(=O)[C@H](Cc1ccccc1)NC(=O)[C@H](CCC(=O)O)NC(=O)C(CC(=O)O)NC(C)=O)[C@@H](C)CC)C(C)C)[C@@H](C)CC)C(=O)N[C@@H](CCC(=O)O)C(=O)N[C@@H](CCC(=O)O)C(=O)N[C@@H](CO)C(=O)N[C@@H](CC(=O)O)C(=O)N[C@@H](CCCCN)C(=O)N[C@@H](CCCCN)C(=O)N[C@@H](CC(C)C)C(=O)N[C@@H](CCC(=O)O)C(=O)N[C@@H](CCC(=O)O)C(=O)N[C@H](C(=O)NCC(=O)N[C@@H](CO)C(=O)NCC(=O)N[C@@H](CO)C(=O)NCC(=O)N[C@@H](CCCCNC(=O)CCC(=O)O[C@H]1CC[C@@]2(C)C(=CC[C@H]3[C@@H]4CC[C@H]([C@H](C)CCCC(C)C)[C@@]4(C)CC[C@@H]32)C1)C(N)=O)C(C)C (some centres unmarked) [Compound 18] (Ac-[ξD]EFDKKKIEEVNKKIEESLKKIEESDKKLEEVGSGSGK(Succinyl(4-O-cholesteryl))-NH2) |  |  | 6.4 |  |
| CC[C@H](C)[C@H](NC(=O)[C@H](CCCCN)NC(=O)[C@H](CCCCN)NC(=O)[C@H](CC(C)C)NC(=O)[C@H](CO)NC(=O)[C@H](CCC(=O)O)NC(=O)[C@H](CCC(=O)O)NC(=O)[C@@H](NC(=O)[C@H](CCCCN)NC(=O)[C@H](CCCCN)NC(=O)[C@H](CC(N)=O)NC(=O)[C@@H](NC(=O)[C@H](CCC(=O)O)NC(=O)[C@H](CCC(=O)O)NC(=O)[C@@H](NC(=O)[C@H](CCCCN)NC(=O)[C@H](CCCCN)NC(=O)[C@H](CCCCN)NC(=O)[C@H](CC(=O)O)NC(=O)[C@H](Cc1ccccc1)NC(=O)[C@H](CCC(=O)O)NC(=O)[C@H](CC(=O)O)NC(C)=O)[C@@H](C)CC)C(C)C)[C@@H](C)CC)C(=O)N[C@@H](CCC(=O)O)C(=O)N[C@@H](CCC(=O)O)C(=O)N[C@@H](CO)C(=O)N[C@@H](CC(=O)O)C(=O)N[C@@H](CCCCN)C(=O)N[C@@H](CCCCN)C(=O)N[C@@H](CC(C)C)C(=O)N[C@@H](CCC(=O)O)C(=O)N[C@@H](CCC(=O)O)C(=O)N[C@H](C(=O)N[C@@H](CCC(=O)O)C(=O)N[C@@H](C)C(=O)N[C@@H](C)C(=O)N[C@@H](C)C(=O)N[C@@H](CCCCN)C(=O)N[C@@H](CCCCNC(=O)CCC(=O)O[C@H]1CC[C@@]2(C)C(=CC[C@H]3[C@@H]4CC[C@H]([C@H](C)CCCC(C)C)[C@@]4(C)CC[C@@H]32)C1)C(N)=O)C(C)C [Compound 22] (Ac-DEFDKKKIEEVNKKIEESLKKIEESDKKLEEVEAAAKK(Succinyl(4-O-cholesteryl))-NH2) |  |  | 3.7 |  |
